Patent publication US20080161389A1, “METHOD OF TREATING OCULAR HYPERTENSION AND INTESTINAL DISORDERS BY USING DIANHYDROHEXITE MONONITRATE DERIVATIVES” (LACER, S.A., priority 2006, published 2008)

How the values were obtained:
[1] = test system: Alfa-Chymotrypsin-Induced Glaucoma; assay: Intraocular pressure in alfa-chymotrypsin-induced glaucoma; type: in vivo, rabbits; details: for intraocular pressure 0 hr: 0 h after 3 drops instillation; for intraocular pressure 0 hr / intraocular pressure 1 hr / intraocular pressure 2 hr: rabbits with alpha-chymotrypsin-induced glaucoma; for reduction of intraocular pressure (in words): 0.05%, similar to conventional compound at 10-fold lower concentration; for intraocular pressure 1 hr: 1 h after 3 drops instillation; for intraocular pressure 2 hr: 2 h after 3 drops instillation
Description: The method used was that described by Gabriele Campana, Claudio Bucolo, Giovanna Murari and Santi Spampinato in Pharmacol. Exp Therap Vol. 303, Issue 3, 1086-1094, December 2002
Animals were injected with intra muscular injection of dexamethasone at the dose rate of 10 mg/Kg body weight, to avoid immediate inflammation. Animals were anesthetized with ketamine (50 mg/kg IV) in combination with Dizepam.
Xylocaine (4%) was used for local anesthesia topically. A cannula attached to reservoir was inserted into the anterior chamber with the help of a 30 gauge needle to provide a hydrostatic pressure of 25 mmHg during injection of alpha-chymotrypsin. Then a second appropriately shaped 30 gauge needle was introduced near the pupil. Freshly prepared 150 units of alpha chymotrypsin prepared in 0.1 ml of sterile saline was irrigated through the cannula into the posterior chamber. Care was taken to prevent the contact of alpha chymotrypsin with corneal stroma. Both cannulas were carefully removed without significant loss of aqueous humor. Immediately after surgery the eye treated with Sofracort (Corticosteroid) to reduce the chances of fungal or microbial infection.
All the animals were kept under observation for 5 days and after these five days the intraocular pressure (IOP) was measured daily with a Schiontz type indentation tonometer using 5.5 gm weights and by compilation of readings the maximum period required to achieve a stable increase in IOP was determined. […] IOP was measured after 15 days for 3 consecutive days, every morning (at same time) to assure stable IOP.
All the animals were closely observed for the development of glaucoma. Thirty animals showing the symptoms of glaucoma and with the intra ocular pressure more than 30 mmHg were selected for the present investigation.
Compounds 2-acetylthioisosorbide-5-mononitrate and 2-[(R)-methylsulfinyl]isosorbide-5-mononitrate (0.05%) were administered to two different groups of rabbits at a concentration of 0.05% by weight [0.05g in 100 mL of saline serum] by 3 drops instillation. For comparative data, the compound Timolol (Timoftol®) widely used for the treatment of glaucoma, was also administered to another group of rabbits at a concentration of 0.5% by weight.
The intraocular pressure measurements are included in the table 2 in mm Hg taken at 0, 1 and 2 h after 3 drops instillation.

Myeloperoxidase (MPO) = Myeloperoxidase (MPO) activity as inflammation index in homogenized tissue samples (ELISA), indomethacin-induced intestinal inflammation; type: in vivo, mice; details: for MPO activity: homogenized tissue samples, mice, indomethacin-induced intestinal inflammation, 30 mg/kg orally
Description: (§1) Intestinal inflammation were induced by administration of two subcutaneous injections of 7.5 mg/kg indomethacin, as previously described Porras M., Martin M T., Soler M. and Vergara P., “Intestinal motor disorders associated with cyclical bacterial overgrowth in a rat model of enteritis”. Am. J. Physiol. Gastrointest. Liver Physiol. […] Am. J. Physiol. Gastrointest. Liver Physiol. (2006), 290:G423-G430.
(§2) Once the intestinal inflammation has been induced, one group of mice were treated with 30 mg of the compound 2-acetylthioisosorbide-5-mononitrate per kg of body weight, being dissolved this compound in water and administered orally. For comparative data, the compound isosorbide-5-mononitrate (IS-5-MN), structurally similar to 2-acetylthioisosorbide-5-mononitrate, was also administered to another group of mice.
(§3) Myeloperoxidase (MPO) activity was measured as an inflammation index in homogenized tissue samples after centrifugation using a specific ELISA kit (HyCult biotechnology, Uden, The Netherlands). In addition, since the barrier function of the intestinal mucus is deteriorated when the epithelium is inflamed and, as a consequence, the exposed bacteria cross the membrane and enter in the blood current, bacterial translocation was measured by detection of viable enteric bacteria in mesenteric lymph nodes as described by [M Mainous M R., Tso P., Berg R. D. and Deitch E. A., Arch Surg (1991) 126:33-37] as additional measure of inflammation degree.

Enterococcus sp = assay: Bacterial translocation (Enterococcus sp) in indomethacin-induced intestinal inflammation; type: in vivo; details: number of positive cultures / total number of samples in group, mesenteric lymph nodes, mice, 30 mg/kg orally
Description: as §1
Once the intestinal inflammation has been induced, one group of mice were treated with 30 mg of the compound 2-acetylthioisosorbide-5-mononitrate per kg of body weight, being dissolved this compound in water and administered orally. […]
as §3, with “degree. […]” for “degree.”

duodenum = assay: Motor activity: spontaneous contractions recorded at duodenum, indomethacin-induced intestinal inflammation; type: in vivo; details: spontaneous contractions recorded at duodenum per minute, mice, 30 mg/kg orally
Description: as §1, §2
(§4) Studies of the route, magnitude, and time course of bacterial translocation in a model of systemic inflammation were achieved as describe in Arch Surg 126:33-37, 1991. Bacterial translocation was expressed as the number of positive cultures with respect to the total number of samples in each group and motor activity was measured as the contracting activity expressed as the total number of spontaneous contractions recorded at duodenum per minute.

E. coli = assay: Bacterial translocation (E. coli) in indomethacin-induced intestinal inflammation; type: in vivo; details: mice; for Bacterial translocation E. coli: number of positive cultures / total number of samples in group, mesenteric lymph nodes, 30 mg/kg orally
Description: as §1, §2, §3, §4

Row | SMILES | intraocular pressure 0 hr [1] [mm Hg] | reduction of intraocular pressure (in words) [1] | intraocular pressure 1 hr [1] [mm Hg] | intraocular pressure 2 hr [1] [mm Hg] | reduction of MTO activity (in words) (Myeloperoxidase (MPO); compared to a structurally similar compound (IS-5-MN)) | MPO activity (Myeloperoxidase (MPO)) [ng/mL] | Bacterial translocation Enterococcus sp (Enterococcus sp) | Contractions/min (duodenum) [Contractions/min] | bacterial translocation (in words) (E. coli) | Bacterial translocation E. coli (E. coli)
1 | C[S@@+]([O-])C1COC2C(O[N+](=O)[O-])COC21 (stereo partly drawn) [2-[(R)-methylsulfinyl]isosorbide-5-mononitrate] | 33.87 ± 0.38 | significantly reduce the intraocular pressure | 23.51 ± 0.24 | 22.77 ± 0.19 | – | – | – | – | – | –
2 | CC(=O)S[C@H]1CO[C@H]2[C@@H]1OC[C@H]2O[N+](=O)[O-] [2-acetylthioisosorbide-5-mononitrate, 2-acetylthio-isosorbide-5-mononitrate] | 34.33 ± 0.68 | significantly reduce the intraocular pressure | 24.72 ± 0.47 | 23.86 ± 0.32 | significant reduction | 10 ± 2 | 1/6 | 0.2 ± 0.1 | also reduced | 2/6
3 | O=[N+]([O-])O[C@@H]1CO[C@H]2[C@@H]1OC[C@@H]2O [IS-5-MN, isosorbide-5-mononitrate, reference compound] | – | – | – | – | – | 19 ± 4 | 3/6 | 0.5 ± 0.1 | – | 3/6
4 | CC(C)(C)NC[C@H](O)COc1nsnc1N1CCOCC1 [Timolol, reference compound] | 34.45 ± 0.58 | – | 24.77 ± 0.26 | 24.54 ± 0.26 | – | – | – | – | – | –
